The test system of experiment [1] is PBMC from HLA-DQ2+ subjects. Nature of the experiment: Interferon gamma ELISPOT, initial gliadin epitope screening library. The class given is cell-based, human. Conditions: 15 HLA-DQ2+ subjects, deamidated 20mers. An excerpt:
In initial experiments involving 29 HLA-DQ2+ individuals with coeliac disease on long-term gluten free diet, interferon-gamma ELISPOT assays were used to screen a previous Pepset (described in WO 03/104273, which is incorporated herein by reference) initially as pools of peptides and then in 15 subjects as individual peptides with and without deamidation by tTG. This Pepset library consisted of 652 20mer gliadin peptides spanning all unique 12mers contained within all Genbank entries described as wheat gliadins found in September 2001. This Pepset library was designed “manually” from gene-derived protein sequences aligned using ClustalW software (MegAlign) arranged into phylogenetic groupings.
Approximately 0.6 micromole of each of 652 of the 20mers was provided. Two marker 20mer peptides were included in each set of 96 ([…]—peptide 161 (SEQ ID NO: 1931), and […] (SEQ ID NO: 1932)) and were characterized by reverse phase-HPLC and amino acid sequence analysis. Average purities of these marker peptides were 19% and 50%, respectively. Peptides were initially dissolved in acetonitrile (10%) and Hepes 100 mM to 10 mg/ml. The final concentration of individual peptides incubated with PBMC for the IFNγ ELISpot assays was 20 mcg/ml. These peptides were deamidated by incubation with guinea pig tissue tTG (Sigma T5398) in the ratio 100:32 mcg/ml for two hours at 37° C. […]

The subject of experiment [2] is PBMC from HLA DQ2 coeliac disease subjects. Kind of experiment: Interferon gamma ELISPOT, combitope comparison after wheat, rye or barley challenge. Conditions: for median ELISPOT response as percent of response to Combitope: after wheat challenge, n=16 subjects. The class given is cell-based, human. The source says: The issue of epitope redundancy and the potential utility in diagnostics and therapeutics of peptides designed to combine “unique” dominant epitopes was addressed by comparing interferon gamma ELISPOT responses after wheat (n=16 HLA DQ2 coeliac disease subjects), rye (n=17) or barley (n=13) challenge to the sequences: QLQPFPQPELPYPQPQL (SEQ ID NO: 1903) (“P04724E”), QPEQPFPQPEQPFPWQP (SEQ ID NO: 1904) (“626fEE”), and […] (SEQ ID NO: 1905) (“Combitope”). After rye and barley challenge the sum of the median ELISPOT responses (spot forming units) to P04724E and 626fEE were almost identical (99%, and 102%, respectively) to the response to a similar (optimal) concentration of the Combitope. However, after wheat challenge (n=16 subjects), median P04724E response was 89% of that to Combitope, and median 626fEE responses was 70% of the response to Combitope.

With “PQPFPPQLPYPQPQLPYPQP (Description of Artificial Sequence: Synthetic gliadin peptide) [Peptide 91]”, in experiment [1], the “potency rank in library” value is recorded as “most potent gliadin 20mer”.
In the case of “QLQPFPQPELPYPQPQL (Description of Artificial Sequence: Synthetic gluten peptide) [Peptide P04724E]”, the “sum of the median ELISPOT responses to P04724E and 626fEE relative to response to Combitope” value is recorded as 102% in experiment [2] (after barley challenge, n=13) and 99% in experiment [2] (after rye challenge, n=17). Also, in experiment [2], the “median ELISPOT response as percent of response to Combitope” value came out at 89%.
With “QPEQPFPQPEQPFPWQP (Description of Artificial Sequence: Synthetic gluten peptide) [Peptide 626fEE]”, the “sum of the median ELISPOT responses to P04724E and 626fEE relative to response to Combitope” value in experiment [2] (after barley challenge, n=13) stood at 102%; in experiment [2] (after rye challenge, n=17), 99%. The “median ELISPOT response as percent of response to Combitope” value in experiment [2] came out at 70%.

Source of the values: patent US10105437B2, “Epitopes related to coeliac disease” (BTG International Limited, priority 2004, dated 2018).
